Measured values published in patent US20190336537A1, “GENERATING ATRIAL AND VENTRICULAR CARDIOMYOCYTE LINEAGES FROM HUMAN PLURIPOTENT STEM CELLS” (UNIVERSITY HEALTH NETWORK, priority 2016, published 2019).

How the values were obtained:
[1] = system: HES3 NKX2-5:GFP reporter hESC line derived cardiomyocytes; assay: qRT-PCR analysis of atrial and ventricular gene expression in day 20 hPSC-derived cardiomyocytes; type: cell-based, human; conditions: receptor-specific agonist added in place of RA to day 3 cultures
[2] = system: MSC-iPS1 induced pluripotent stem cell line derived EBs; assay: ROH/RA response of MSC-iPS1-derived EBs (day 20 flow cytometry and qRT-PCR); type: cell-based, human; conditions: treated days 3 to 5
Excerpt: (§1) To determine if the approach for optimizing atrial and ventricular differentiation based on ALDH activity and CD235a expression is broadly applicable, we next used it to generate these cardiomyocyte populations from the HES2 human embryonic stem cell and the MSC-iPS1 induced pluripotent stem cell lines. Titration studies identified 5B/2A and 5B/6A as optimal for atrial and ventricular inductions, respectively, for HES2 cells and 4B/4A as optimal for ventricular induction for MSCiPSC1 cells (FIGS. 7A, 7B, 7E, and 7F; Mendeley http://dx.doi.org/10.17632/7z7d5v2c3w.1). Optimization of atrial induction from the MSC-iPSC1 cells was more challenging, as all cytokine combinations promoted the development of a substantial CD235a+ population. One interpretation of these patterns is that the MSC-iPS1 cells have a high level of endogenous Nodal/Activin A signaling, resulting in the development of some CD235a+ cells under all conditions. To test this, we added the Nodal/Activin A/transforming growth factor beta (TGF-beta) inhibitor SB-431542 (SB) from days 3 to 5 to cells induced with 4B/1A.
(§2) For cardiac differentiation, we used a modified version of our embryoid body (EB)-based protocol (Kattman et al., 2011). hPSC populations at 80%-90% confluence were dissociated into single cells (TrypLE, ThermoFisher) and re-aggregated to form EBs in StemPro-34 media (ThermoFisher) containing penicillin/streptomycin (1%, ThermoFisher), L-glutamine (2 mM, ThermoFisher), trans-ferrin (150 μg/ml, ROCHE), ascorbic acid (50 μg/ml, Sigma), and monothioglycerol (50 μg/ml, Sigma), ROCK inhibitor Y-27632 (10 μM, TOCRIS) and rhBMP4 (1 ng/ml, R&D) for 18 h on an orbital shaker. At day 1, the EBs were transferred to mesoderm induction media consisting of StemPro-34 with above supplements (-ROCK inhibitor Y-27632) and rhBMP4, rhActivinA (R&D) and rhbFGF (5 ng/ml, R&D) at the indicated concentrations. At day 3, the EBs were harvested, washed with IMDM and transferred to cardiac mesoderm specification media consisting of StemPro-34, the Wnt inhibitor IWP2 (1 μM, TOCRIS) and rhVEGF (10 ng/mL, R&D). At day 5, the EBs were transferred to Stem Pro-34 with rhVEGF (5 ng/ml) for another 7 days and then to Stem Pro-34 media without additional cytokines for further 8 days. At day 20, HES3-NKX2-5gfp/w-derived cardiomyocytes were analyzed and isolated based on the expression of NKX2-5:GFP and SIRPa and a lack of CD90. Cardiomyocytes generated from non-transgenic hPSC lines were analyzed and isolated as SIRPa+CD90− populations. Media was changed every 3 days. Cultures were incubated in a low oxygen environment (5% CO2, 5% O2, 90% N2) for first 12 days and a normoxic environment (5% CO2) for the following 8 days in total of 20 days. […]

[3] = system: HES3 NKX2-5:GFP hESC-derived mesoderm; assay: Specification of mesoderm populations to an atrial fate by ROH or RA (day 20 flow cytometry and qRT-PCR); type: cell-based, human; conditions: for atrial specification (MLC2V+, IRX4, KCNJ3, NR2F2): treated days 3-5
Procedure: To determine if the ALDH^+ cells can synthesize RA, the ALDH^+PDGFRalpha^+ and ALDH^− PDGFRalpha^+ fractions were isolated from the day 4 3B/2A-induced population, and the cells were cultured as aggregates in retinol (ROH), RA, or DMSO (control) for 24 hr (FIGS. 3A and 3B). ALDH1A2 expression segregated to the ALDH^+ fraction, confirming the validity of aldefluor-based sorting strategy for isolating RALDH2-expressing cells (FIG. 3C).
(§3) For cardiac differentiation, we used a modified version of our embryoid body (EB)-based protocol (Kattman et al., 2011). hPSC populations at 80%-90% confluence were dissociated into single cells (TrypLE, ThermoFisher) and re-aggregated to form EBs in StemPro-34 media (ThermoFisher) containing penicillin/streptomycin (1%, ThermoFisher), L-glutamine (2 mM, ThermoFisher), trans-ferrin (150 μg/ml, ROCHE), ascorbic acid (50 μg/ml, Sigma), and monothioglycerol (50 μg/ml, Sigma), ROCK inhibitor Y-27632 (10 μM, TOCRIS) and rhBMP4 (1 ng/ml, R&D) for 18 h on an orbital shaker. At day 1, the EBs were transferred to mesoderm induction media consisting of StemPro-34 with above supplements (-ROCK inhibitor Y-27632) and rhBMP4, rhActivinA (R&D) and rhbFGF (5 ng/ml, R&D) at the indicated concentrations. At day 3, the EBs were harvested, washed with IMDM and transferred to cardiac mesoderm specification media consisting of StemPro-34, the Wnt inhibitor IWP2 (1 μM, TOCRIS) and rhVEGF (10 ng/mL, R&D). At day 5, the EBs were transferred to Stem Pro-34 with rhVEGF (5 ng/ml) for another 7 days and then to Stem Pro-34 media without additional cytokines for further 8 days. At day 20, HES3-NKX2-5gfp/w-derived cardiomyocytes were analyzed and isolated based on the expression of NKX2-5:GFP and SIRPa and a lack of CD90. Cardiomyocytes generated from non-transgenic hPSC lines were analyzed and isolated as SIRPa+CD90− populations. Media was changed every 3 days. Cultures were incubated in a low oxygen environment (5% CO2, 5% O2, 90% N2) for first 12 days and a normoxic environment (5% CO2) for the following 8 days in total of 20 days. The EBs were cultured in ultra-low attachment 6-well dishes (Corning) throughout the differentiation for maintaining suspension cultures.
Following optimization, either ATRA (0.5 μM, Sigma) or retinol (2 μM, Sigma) was included in the cardiac mesoderm specification media from days 3-5 for the generation of atrial cardiomyocytes.
(§4) Day 2-6 EBs were dissociated with TrypLE for 2-4 min at room temperature (RT). Day 20 EBs were dissociated by incubation in Collagenase type 2 (0.5 mg/ml, Worthington) in HANKs buffer overnight at RT followed by TrypLE treatment as described above. The following antibodies were used for staining: anti-PDGFRa-PE (R&D Systems, 3:50), anti-CD235a-APC (BD PharMingen, 1:100), antiSIRPa-PeCy7 (Biolegend, 1:1000), anti-CD90-APC (BD PharMingen, 1:1000), anticardiac isoform of CTNT (ThermoFisher Scientific, 1:2000), or anti-myosin light chain 2 (Abcam, 1:1000). For unconjugated primary antibodies, the following secondary antibodies were used for detection: goat anti-mouse IgG-APC (BD Pharmigen, 1:250), or donkey anti-rabbit IgG-PE (Jackson ImmunoResearch, 1:250). Detailed antibody information is described in Table 2.
The Aldefluor™ assay (STEMCELL Technologies) was performed according to the instruction provided by the manufacturer. Briefly, day 2-6 EBs were dissociated as described above. […] Stained cells were analyzed as described above. […]

[4] = system: HES3 NKX2-5:GFP hESC-derived mesoderm; assay: as above; type: cell-based, human; conditions: day 4, 5B/4A induced
[5] = system: HES2 human embryonic stem cell derived EBs; assay: ROH/RA response of HES2-derived EBs (day 20 flow cytometry and qRT-PCR); type: cell-based; conditions: treated days 3 to 5
Excerpt: as §1, §2

[6] = system: hPSC-derived day 2-6 EB mesoderm; assay: Aldefluor assay and flow cytometry of mesoderm (ALDH activity, PDGFRalpha, CD235a); type: cell-based, human
Procedure: as §4
The Aldefluor™ assay (STEMCELL Technologies) was performed according to the instruction provided by the manufacturer. Briefly, day 2-6 EBs were dissociated as described above. Cells were stained at a concentration of 2×10^6 cells/ml in the aldefluor assay buffer containing 0.1% BSA and BAAA substrate (0.12 mg/ml) for 60 min at 37 degrees C. The aldehyde dehydrogenase inhibitor DEAB ([…]) was added to the negative control sample. Cells were washed with cold media consisting of IMDM with 5% FCS and 10% aldefluor assay buffer. Cells were then stained with antibodies to cell surface markers at the concentrations indicated above in cold wash media for additional 20 min at 4 degrees C. Stained cells were analyzed as described above. During analyses, the cells were kept in cold wash media. For cell sorting, FCS was replaced with KnockOut™ serum replacement (ThermoFisher) to avoid any impact of serum-contained cy-tokines on the cell differentiations. Cells were maintained in StemPro-34 containing 10% aldefluor assay buffer throughout the sorting procedure. The sorted cells were collected and re-aggregated in StemPro-34 containing ROCK inhibitor (10 μM), IWP2 (0.5 μM) and rhVEGF (5 ng/ml).

[7] = system: HES3 NKX2-5:GFP hESC-derived day 20 EB populations; assay: Flow cytometric and immunostaining analyses of day 20 EB populations (CTNT, MLC2V, NKX2-5, COUPTFII); type: cell-based, human
Procedure: as §3, §4
For cell-surface marker analyses, cells were stained for 30 min at 4 degrees C. in FACS buffer consisting of PBS with 5% fetal calf serum (FCS) (Wisent) and 0.02% sodium azide. For intracellular staining, cells were fixed for 15 min at 4 degrees C. with 4% PFA in PBS followed by permeabilization using 90% methanol for 20 min at 4 degrees C. Cells were washed with PBS containing 0.5% BSA (Sigma) and stained with unconjugated primary antibodies in FACS buffer overnight at 4 degrees C. Stained cells were washed with PBS with 0.5% BSA and stained with secondary antibodies in FACS buffer for 1 h at 4 degrees C.
Stained cells were analyzed using the LSR II Flow cytometer (BD). For cell sorting, stained cells were kept in IMDM with 0.5% FCS and sorted using Influx (BD), FACSAriall (BD), MoFlo-XDP (BD) and FACSAria Fusion (BD) at the Sickids/UHN flow cytometry facility. Data were analyzed using FlowJo software (Tree Star).
Day 20 EBs were dissociated as described above and the cells plated onto 12 mm cover glasses (VWR) pre-coated with matrigel (25% v/v, BD). Cells were cultured for 3-5 days to enable the formation of adherent cell monolayers. Cells were fixed with
4% PFA in PBS for 10 min at room temperature and permeabilized with PBS containing 0.3% TritonX, 200 mM Glycine (Sigma) for 20 min at RT. Cells were blocked with PBS containing 10% FCS, 0.1% TritonX, and 2% BSA. […]

[8] = increasing Activin A from 2 to 12 ng/ml, BMP4 10 ng/mL
[9] = reducing Activin A, constant BMP4 (10 ng/mL)
[10] = reducing BMP4 from 10 to 3 ng/mL, Activin A 2 ng/mL

O=C(O)c1ccc2cc(-c3ccc(O)c(C45CC6CC(CC(C6)C4)C5)c3)ccc2c1 [CD437]
MYL2 expression in day 20 CTNT+ populations [1]: reduction

CC1(C)CCC(C)(C)c2cc(C(=O)Nc3ccc(C(=O)O)cc3)ccc21 [AM580]
MYL2 expression in day 20 CTNT+ populations [1]: reduction

CC1=C(/C=C/C(C)=C/C=C/C(C)=C/CO)C(C)(C)CCC1 [ROH, retinol]
response of ALDH+ mesoderm (atrial expression profile) ([2]; MSC-iPS1, 4B/1A+SB induced): responded to both ROH and RA
response of CD235a+ mesoderm (MLC2V content, MYL2, IRX4, KCNJ3, NR2F2) ([2]; MSC-iPS1, 4B/4A induced): Neither CD235a+ mesoderm population responded
atrial specification (MLC2V+, IRX4, KCNJ3, NR2F2) ([3]; 3B/2A-induced EBs): responded to ROH and generated an atrial-like cardiomyocyte population
atrial specification (MLC2V+, IRX4, KCNJ3, NR2F2) ([3]; 5B/12A-induced EBs): did not respond
atrial specification (MLC2V+ frequency, IRX4, KCNJ3) ([3]; ALDH+PDGFRalpha+ fraction, day 4, 3B/2A induced, 24 hr treatment): generated an atrial-like cardiomyocyte population
atrial specification (MLC2V+, IRX4, NPPA, KCNJ3, NR2F2) ([4]; CD235a+ALDH− fraction): no response
atrial specification (MLC2V+, IRX4, NPPA, KCNJ3, NR2F2) ([4]; CD235a−ALDH+ fraction): gave rise to an atrial-like cardio-myocyte population
response of ALDH+ mesoderm (atrial expression profile) ([5]; HES2, 5B/2A induced): responded to both ROH and RA
response of CD235a+ mesoderm (MLC2V content, MYL2, IRX4, KCNJ3, NR2F2) ([5]; HES2, 5B/6A induced): Neither CD235a+ mesoderm population responded

CCCCCCCCc1ccc(-c2ccc(C(=O)O)cc2)cc1 [AC55649]
MYL2 expression in day 20 CTNT+ populations [1]: reduction

B1: Activin A: Recombinant human ActivinA (R&D), activates nodal signal transduction (protein, UniProt P08476 311-426, looked up)
Inhibin beta A chain: GLECDGKVNICCKKQFFVSFKDIGWNDWIIAPSGYHANYCEGECPSHIAGTSGSSLSFHSTVINHYRMRGHSPFANLKSCCVPTKLRPMSMLYYDDGQNIIKKDIQNMIVEECGCS
modifications: Inhibin beta A chain
ALDH+ population [6, 8]: elimination
size of the day 4 CD235a+ population [6, 8]: increase in the size
size of the ALDH+PDGFRalpha+ population at day 4 [6, 9]: substantial increase
proportion of MLC2V+CTNT+ cells [7, 8]: increase in the proportion
proportion of CTNT+ cardiomyocytes generated [7, 9]: decrease

B2: BMP4: Bone Morphogenetic Protein 4, recombinant human (R&D) (protein, UniProt P12644 293-408, looked up)
Bone morphogenetic protein 4: SPKHHSQRARKKNKNCRRHSLYVDFSDVGWNDWIVAPPGYQAFYCHGDCPFPLADHLNSTNHAIVQTLVNSVNSSIPKACCVPTELSAISMLYLDEYDKVVLKNYQEMVVEGCGCR
size of the CD235a+ population ([6]; BMP4 3-20 ng/mL, Activin A 12 ng/mL): little impact
size of the ALDH+PDGFRalpha+ population [6, 10]: did not influence
frequency of MLC2V+CTNT+ cells at day 20 ([7]; BMP4 20 ng/mL, Activin A 12 ng/mL): lowest frequency
frequency of CTNT+ cells at day 20 [7, 10]: increase the frequency
